These are literature values, as cited in patent US20040087563A1, “Hormone replacement therapy with cardiovascular protection using antialdosteronic progestins” (priority 2002, published 2004).

Structures are written as SMILES.

Data set [1] has as its target T1, mineralocorticoid receptor (Homo sapiens, UniProt P08235).
T1 sequence (P08235 1-984): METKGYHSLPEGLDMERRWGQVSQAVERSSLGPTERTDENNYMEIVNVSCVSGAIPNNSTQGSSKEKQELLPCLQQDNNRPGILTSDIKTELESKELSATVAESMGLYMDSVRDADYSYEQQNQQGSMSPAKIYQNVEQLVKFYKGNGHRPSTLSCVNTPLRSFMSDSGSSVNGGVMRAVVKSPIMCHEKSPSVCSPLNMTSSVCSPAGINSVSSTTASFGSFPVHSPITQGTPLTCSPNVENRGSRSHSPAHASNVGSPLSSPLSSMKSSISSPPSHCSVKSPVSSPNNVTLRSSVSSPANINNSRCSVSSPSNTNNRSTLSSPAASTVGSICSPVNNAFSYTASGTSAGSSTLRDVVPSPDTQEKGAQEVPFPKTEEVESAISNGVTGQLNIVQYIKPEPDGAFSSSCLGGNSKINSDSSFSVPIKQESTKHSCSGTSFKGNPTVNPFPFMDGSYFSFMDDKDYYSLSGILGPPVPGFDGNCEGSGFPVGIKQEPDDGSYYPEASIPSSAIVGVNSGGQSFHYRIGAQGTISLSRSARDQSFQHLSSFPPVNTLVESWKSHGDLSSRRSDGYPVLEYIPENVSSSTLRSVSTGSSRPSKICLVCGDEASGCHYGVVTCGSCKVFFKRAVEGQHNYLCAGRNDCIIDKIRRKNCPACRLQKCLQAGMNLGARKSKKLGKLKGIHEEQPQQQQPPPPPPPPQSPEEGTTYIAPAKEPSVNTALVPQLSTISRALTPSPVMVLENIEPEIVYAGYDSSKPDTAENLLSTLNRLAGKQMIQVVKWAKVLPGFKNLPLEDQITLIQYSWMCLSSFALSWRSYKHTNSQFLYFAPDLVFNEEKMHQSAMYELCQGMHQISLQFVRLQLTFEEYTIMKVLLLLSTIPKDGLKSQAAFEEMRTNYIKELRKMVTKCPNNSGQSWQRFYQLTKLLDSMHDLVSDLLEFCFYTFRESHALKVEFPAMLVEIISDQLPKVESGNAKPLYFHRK
The settings on record: compared with spironolactone.

In data set [2] the test system is renin-angiotensin-aldosterone system. To be noted: healthy female volunteers.
For data set [3] the following is noted: patients with severe heart failure already receiving ACE inhibitor therapy.

Take `C[C@]12CCC(=O)C=C1[C@@H]1C[C@@H]1[C@H]1[C@@H]3[C@@H]4C[C@@H]4[C@@]4(CCC(=O)O4)[C@@]3(C)CC[C@@H]12` [Drospirenone, 6β,7β;15β;16β-dimethylene-3-oxo-17α-preg-4-ene-21, 17-carbolactone]: the “potency relative to spironolactone (antimineralocorticoid activity)” value in data set [1] is given as “about 8 times”. Also, the plasma aldosterone levels result in data set [2] was “increased”.
For the molecule `CC(=O)S[C@@H]1CC2=CC(=O)CC[C@]2(C)[C@H]2CC[C@@]3(C)[C@@H](CC[C@@]34CCC(=O)O4)[C@H]12` [Spironolactone, 17-hydroxy-7-alpha-mercapto-3-oxo-17-alpha-pregn-4-ene-21-carboxylic acid gamma-lactone acetate], the morbidity and mortality result in data set [3] was “decrease the morbidity and mortality”.
